Data published in the NIST ThermoML archive (doi:10.1016/j.fluid.2016.07.034).

Assay: molar heat capacity at constant pressure
Settings: Flow calorimetry

CCF [fluoroethane]
Settings	molar heat capacity at constant pressure [J/K/mol]
303.42 K, 1340 kPa, Liquid	107.27
303.47 K, 1930 kPa, Liquid	106.74
303.48 K, 6470 kPa, Liquid	102.68
303.49 K, 9530 kPa, Liquid	100.86
303.5 K, 2520 kPa, Liquid	106.24
303.5 K, 8030 kPa, Liquid	101.83
303.5 K, 10100 kPa, Liquid	100.8
303.51 K, 7100 kPa, Liquid	102.32
303.51 K, 11050 kPa, Liquid	100.2
303.52 K, 5200 kPa, Liquid	103.84
303.52 K, 8440 kPa, Liquid	101.93
303.52 K, 10520 kPa, Liquid	100.64
303.52 K, 11560 kPa, Liquid	100.42
303.53 K, 3000 kPa, Liquid	106.02
303.53 K, 5540 kPa, Liquid	103.57
303.53 K, 5980 kPa, Liquid	103.24
303.53 K, 7520 kPa, Liquid	102.26
303.53 K, 9130 kPa, Liquid	101.37
303.54 K, 12050 kPa, Liquid	100.01
303.55 K, 3510 kPa, Liquid	105.63
303.55 K, 4550 kPa, Liquid	104.88
303.57 K, 4010 kPa, Liquid	105.42
313.31 K, 2010 kPa, Liquid	110.61
313.33 K, 3080 kPa, Liquid	109.26
313.35 K, 2560 kPa, Liquid	110.04
313.35 K, 3500 kPa, Liquid	108.56
313.36 K, 4000 kPa, Liquid	108.09
313.37 K, 4510 kPa, Liquid	107.49
313.37 K, 7030 kPa, Liquid	104.99
313.38 K, 8490 kPa, Liquid	103.71
313.38 K, 9510 kPa, Liquid	102.92
313.39 K, 5070 kPa, Liquid	107.08
313.39 K, 7490 kPa, Liquid	104.67
313.4 K, 9090 kPa, Liquid	103.61
313.4 K, 10010 kPa, Liquid	102.8
313.41 K, 1510 kPa, Liquid	112.39
313.41 K, 6080 kPa, Liquid	106.37
313.42 K, 5490 kPa, Liquid	106.99
313.42 K, 7980 kPa, Liquid	104.69
313.42 K, 10490 kPa, Liquid	102.75
313.43 K, 6510 kPa, Liquid	106.03
313.43 K, 10980 kPa, Liquid	102.52
313.47 K, 11470 kPa, Liquid	102.55
315.33 K, 1020 kPa, Gas	77.84
315.39 K, 1110 kPa, Gas	80.21
315.56 K, 1220 kPa, Gas	83.09
324.11 K, 2050 kPa, Liquid	115.84
324.13 K, 2570 kPa, Liquid	114.7
324.13 K, 8110 kPa, Liquid	105.47
324.14 K, 5980 kPa, Liquid	108.6
324.15 K, 3000 kPa, Liquid	113.84
324.15 K, 8550 kPa, Liquid	105.2
324.16 K, 4060 kPa, Liquid	111.82
324.16 K, 6470 kPa, Liquid	107.92
324.16 K, 7520 kPa, Liquid	106.39
324.17 K, 5510 kPa, Liquid	109.38
324.17 K, 10040 kPa, Liquid	103.35
324.18 K, 3500 kPa, Liquid	113.06
324.18 K, 4510 kPa, Liquid	111.09
324.19 K, 7020 kPa, Liquid	107.27
324.19 K, 9040 kPa, Liquid	104.9
324.19 K, 10510 kPa, Liquid	103.17
324.19 K, 11010 kPa, Liquid	102.91
324.21 K, 5030 kPa, Liquid	110.51
324.21 K, 9450 kPa, Liquid	104.56
324.21 K, 11610 kPa, Liquid	102.46
324.22 K, 12030 kPa, Liquid	102.24
325.23 K, 1300 kPa, Gas	79.4
325.26 K, 1210 kPa, Gas	77.2
325.57 K, 1110 kPa, Gas	75.5
333.86 K, 2520 kPa, Liquid	124.88
333.92 K, 3010 kPa, Liquid	123.2
333.97 K, 5000 kPa, Liquid	117.16
333.97 K, 5500 kPa, Liquid	115.91
333.98 K, 5990 kPa, Liquid	114.8
333.99 K, 3510 kPa, Liquid	121.92
333.99 K, 4620 kPa, Liquid	118.27
333.99 K, 9500 kPa, Liquid	108.39
334 K, 4070 kPa, Liquid	120.01
334 K, 6530 kPa, Liquid	113.92
334.01 K, 10060 kPa, Liquid	108
334.02 K, 7050 kPa, Liquid	112.82
334.03 K, 8960 kPa, Liquid	109.42
334.03 K, 10520 kPa, Liquid	107.4
334.03 K, 11040 kPa, Liquid	107.08
334.05 K, 7490 kPa, Liquid	112.09
334.05 K, 8350 kPa, Liquid	110.82
334.05 K, 11630 kPa, Liquid	106.69
334.07 K, 12280 kPa, Liquid	106.31
334.76 K, 1410 kPa, Gas	77.78
335.09 K, 1600 kPa, Gas	82.79
335.23 K, 1510 kPa, Gas	80.11
335.46 K, 1300 kPa, Gas	75.24
335.63 K, 1210 kPa, Gas	74.2
343.4 K, 2840 kPa, Liquid	135.92
343.44 K, 3020 kPa, Liquid	134.94
343.77 K, 3540 kPa, Liquid	133.68
343.84 K, 4040 kPa, Liquid	131.08
343.88 K, 4520 kPa, Liquid	129.17
343.89 K, 5970 kPa, Liquid	123.05
343.9 K, 6530 kPa, Liquid	121.47
343.9 K, 7040 kPa, Liquid	120.17
343.9 K, 7540 kPa, Liquid	118.86
343.91 K, 5560 kPa, Liquid	124.9
343.91 K, 8070 kPa, Liquid	117.76
343.91 K, 8530 kPa, Liquid	116.74
343.92 K, 9010 kPa, Liquid	115.78
343.92 K, 9480 kPa, Liquid	114.8
343.92 K, 10010 kPa, Liquid	113.86
343.92 K, 10500 kPa, Liquid	112.99
343.93 K, 5100 kPa, Liquid	126.98
343.93 K, 11010 kPa, Liquid	112.27
343.96 K, 11570 kPa, Liquid	111.8
343.99 K, 12130 kPa, Liquid	111.22
344.36 K, 2000 kPa, Gas	89.95
345.01 K, 1810 kPa, Gas	82.66
345.19 K, 1220 kPa, Gas	72.72
345.35 K, 1600 kPa, Gas	77.74
345.47 K, 1420 kPa, Gas	74.9
353.68 K, 3480 kPa, Liquid	157.19
353.77 K, 8480 kPa, Liquid	121.76
353.78 K, 7950 kPa, Liquid	123.23
353.79 K, 6470 kPa, Liquid	128.91
353.79 K, 9090 kPa, Liquid	120.56
353.79 K, 10010 kPa, Liquid	118.76
353.8 K, 7530 kPa, Liquid	124.7
353.8 K, 9570 kPa, Liquid	119.62
353.8 K, 10480 kPa, Liquid	117.97
353.81 K, 6000 kPa, Liquid	131.53
353.81 K, 7130 kPa, Liquid	126.37
353.81 K, 11040 kPa, Liquid	117.35
353.82 K, 4030 kPa, Liquid	149.07
353.82 K, 5500 kPa, Liquid	134.57
353.84 K, 11540 kPa, Liquid	116.89
353.85 K, 5030 kPa, Liquid	138.32
353.86 K, 4500 kPa, Liquid	143.57
353.87 K, 11950 kPa, Liquid	116.16
355.25 K, 1910 kPa, Gas	81.51
355.27 K, 1520 kPa, Gas	75.85
355.27 K, 1700 kPa, Gas	78.58
355.27 K, 2110 kPa, Gas	85.11
355.28 K, 1310 kPa, Gas	73.7
355.3 K, 1130 kPa, Gas	71.61
355.31 K, 2610 kPa, Gas	99.72
355.33 K, 2820 kPa, Gas	109.04
355.48 K, 2360 kPa, Gas	90.82
355.52 K, 2590 kPa, Gas	97.73
363.33 K, 4330 kPa, Liquid	193.61
363.59 K, 7000 kPa, Liquid	139.97
363.59 K, 7500 kPa, Liquid	136.22
363.59 K, 8480 kPa, Liquid	130.33
363.6 K, 8030 kPa, Liquid	132.67
363.61 K, 9520 kPa, Liquid	125.95
363.61 K, 10000 kPa, Liquid	123.85
363.62 K, 6030 kPa, Liquid	150.44
363.62 K, 6520 kPa, Liquid	144.76
363.63 K, 8990 kPa, Liquid	128.17
363.66 K, 5490 kPa, Liquid	159.6
363.66 K, 10580 kPa, Liquid	122.57
363.68 K, 11000 kPa, Liquid	121.51
363.7 K, 4990 kPa, Liquid	171.83
363.71 K, 11510 kPa, Liquid	120.57
363.75 K, 12010 kPa, Liquid	119.55
365.28 K, 2190 kPa, Gas	82.06
365.28 K, 2400 kPa, Gas	85.63
365.29 K, 2010 kPa, Gas	79.35
365.3 K, 1810 kPa, Gas	76.69
365.33 K, 2600 kPa, Gas	89.76
365.34 K, 1600 kPa, Gas	74.44
365.39 K, 1200 kPa, Gas	71.16
365.39 K, 1410 kPa, Gas	72.82
365.42 K, 2800 kPa, Gas	94.54
365.46 K, 2990 kPa, Gas	99.69
365.54 K, 3400 kPa, Gas	118.14
365.75 K, 3200 kPa, Gas	107.31
373.37 K, 5540 kPa, Liquid	218.6
373.47 K, 9520 kPa, Liquid	134.79
373.48 K, 9010 kPa, Liquid	138.16
373.53 K, 8500 kPa, Liquid	142.08
373.53 K, 9990 kPa, Liquid	132.61
373.53 K, 11480 kPa, Liquid	126.08
373.54 K, 8000 kPa, Liquid	146.44
373.55 K, 6030 kPa, Liquid	187.59
373.56 K, 6990 kPa, Liquid	159.83
373.56 K, 10990 kPa, Liquid	128.66
373.57 K, 7500 kPa, Liquid	151.89
373.58 K, 6510 kPa, Liquid	170.77
373.58 K, 10550 kPa, Liquid	130.44
383.1 K, 6560 kPa, Liquid	239.16
383.57 K, 7020 kPa, Liquid	204.1
383.71 K, 10040 kPa, Liquid	140.17
383.71 K, 10550 kPa, Liquid	136.16
383.74 K, 9490 kPa, Liquid	145.93
383.74 K, 11270 kPa, Liquid	132.02
383.78 K, 7490 kPa, Liquid	182.33
383.81 K, 9090 kPa, Liquid	151.38
383.86 K, 7980 kPa, Liquid	172.97
383.87 K, 8520 kPa, Liquid	160.93
383.88 K, 12030 kPa, Liquid	129.42

O [water]
Liquid
Settings	molar heat capacity at constant pressure [J/K/mol]
304.24 K, 100 kPa	75.43
304.28 K, 3030 kPa	74.86
304.36 K, 11970 kPa	74.97
304.37 K, 6180 kPa	75.16
304.4 K, 9010 kPa	74.98
323.09 K, 90 kPa	75.69
323.13 K, 3180 kPa	75.16
323.15 K, 6040 kPa	74.94
323.17 K, 9000 kPa	74.7
323.19 K, 11970 kPa	74.58
371.11 K, 990 kPa	76.21
371.19 K, 2980 kPa	75.91
371.24 K, 5990 kPa	75.65
371.27 K, 9030 kPa	75.39
371.3 K, 12040 kPa	75.11
424.19 K, 12070 kPa	77.23
424.24 K, 1390 kPa	77.92
424.29 K, 3030 kPa	77.82
424.35 K, 6180 kPa	76.99
424.43 K, 9080 kPa	76.79
424.52 K, 15080 kPa	76.51
473.34 K, 2710 kPa	80.78
473.45 K, 6220 kPa	80.48
473.51 K, 9230 kPa	80.25
473.56 K, 12190 kPa	80.08
473.61 K, 15070 kPa	79.73
526 K, 6030 kPa	87.65
526.12 K, 9260 kPa	87.01
526.17 K, 12250 kPa	86.6
526.23 K, 15120 kPa	86.16
577.06 K, 9960 kPa	104.34
577.11 K, 11800 kPa	102.67
577.14 K, 13510 kPa	102.15
577.18 K, 15110 kPa	100.84
